Experiments:
Assay type in all cases: functional
[1] = Cytotoxicity against human CEM13 cells assessed as cell death after 72 hrs by MTT assay
[2] = test system: MT4; experiment: Cytotoxicity against human MT4 cells assessed as cell death after 72 hrs by MTT assay
[3] = test system: U-937; experiment: Cytotoxicity against human U937 cells assessed as cell death after 72 hrs by MTT assay

SMILES | CTD50 [1] | CTD50 [2] | CTD50 [3]
CC(C)C1(N=[N+]=[N-])Oc2c(cc3ccc(=O)oc3c2CN2CCN(C)CC2)C1=O (configuration not stated) | 58 µM | 62 µM | 45 µM
COc1c(C(C)C)oc2cc3oc(=O)ccc3cc12 [PEUCEDANIN] | 81 µM | 67 µM | 58 µM
CC(C)C1(n2cc(-c3ccc4c(c3)OCCO4)nn2)Oc2cc3oc(=O)ccc3cc2C1=O (configuration not stated) | 15 µM | 11 µM | 8 µM
CC(C)C1(n2cc(CNC(=O)c3cc(O)cc(O)c3)nn2)Oc2cc3oc(=O)ccc3cc2C1=O (configuration not stated) | 16 µM | 22 µM | 23 µM
CC(C)C1(N=[N+]=[N-])Oc2cc3oc(=O)ccc3cc2C1=O (configuration not stated) | 49 µM | 50 µM | 53 µM
CC(C)C1(n2cc(CNC(=O)c3ccc(N)cc3O)nn2)Oc2cc3oc(=O)ccc3cc2C1=O (configuration not stated) | 17 µM | 13 µM | 24 µM
COc1ccc(/C=C/C(=O)NCc2cn(C3(C(C)C)Oc4c(cc5ccc(=O)oc5c4CN4CCN(C)CC4)C3=O)nn2)c(OC)c1 (configuration not stated) | 16 µM | 13 µM | 16 µM
CC(C)C1(n2cc(-c3ccccc3)nn2)Oc2cc3oc(=O)ccc3cc2C1=O (configuration not stated) | 51 µM | 70 µM | 31 µM
CC(C)C1(n2cc(CNC(=O)c3cc(O)c(O)c(O)c3)nn2)Oc2cc3oc(=O)ccc3cc2C1=O (configuration not stated) | 11 µM | 12 µM | 20 µM
COc1cc(OC)cc(C(=O)NCc2cn(C3(C(C)C)Oc4cc5oc(=O)ccc5cc4C3=O)nn2)c1 (configuration not stated) | 18 µM | 19 µM | 45 µM
COc1cc(-c2cn(C3(C(C)C)Oc4cc5oc(=O)ccc5cc4C3=O)nn2)ccc1OCc1ccccc1 (configuration not stated) | 25 µM | 28 µM | 28 µM
CC(C)C1(n2cc(-c3ccccc3)nn2)Oc2c(cc3ccc(=O)oc3c2CN2CCN(C)CC2)C1=O (configuration not stated) | 32 µM | 33 µM | 25 µM
COc1cc(C(=O)NCc2cn(C3(C(C)C)Oc4cc5oc(=O)ccc5cc4C3=O)nn2)ccc1O (configuration not stated) | 9 µM | 10 µM | 8 µM
CC(C)C1(n2cc(-c3ccc4c(c3)OCCO4)nn2)Oc2c(cc3ccc(=O)oc3c2CN2CCN(C)CC2)C1=O (configuration not stated) | 10 µM | 13 µM | 10 µM
CC(C)C1(n2cc(-c3cc([N+](=O)[O-])ccc3O)nn2)Oc2c(cc3ccc(=O)oc3c2CN2CCN(C)CC2)C1=O (configuration not stated) | 11 µM | 11 µM | 17 µM
COc1cccc2c1C(=O)c1c(O)c3c(c(O)c1C2=O)C[C@@](O)(C(=O)CO)C[C@@H]3O[C@H]1C[C@H](N)[C@H](O)[C@H](C)O1 [DOXORUBICIN] | 7.4 µM | 3.4 µM | 0.2 µM
COc1ccc(-c2cn(C3(C(C)C)Oc4cc5oc(=O)ccc5cc4C3=O)nn2)c(OC)c1OC (configuration not stated) | 32 µM | 27 µM | 45 µM
CC(C)C1(n2cc(-c3cc([N+](=O)[O-])ccc3O)nn2)Oc2cc3oc(=O)ccc3cc2C1=O (configuration not stated) | 21 µM | 11 µM | 20 µM
COc1ccc(/C=C/C(=O)NCc2cn(C3(C(C)C)Oc4cc5oc(=O)ccc5cc4C3=O)nn2)c(OC)c1 (configuration not stated) | 30 µM | 22 µM | 25 µM
